Results on 28 compounds are retold here after PMC4057759, “Biological Evaluation and 3D-QSAR Studies of Curcumin Analogues as Aldehyde Dehydrogenase 1 Inhibitors” (International Journal of Molecular Sciences, 2014).

pIC50: −log10 of the molar value. Read-outs that look alike come from different tables or passages of the source.

The target of one series is T1, baker's yeast ALDH1 (Saccharomyces cerevisiae, UniProt P46367).
T1 construct: purchased Sigma (St. Louis, MO, USA)
T1 sequence (P46367 25-519): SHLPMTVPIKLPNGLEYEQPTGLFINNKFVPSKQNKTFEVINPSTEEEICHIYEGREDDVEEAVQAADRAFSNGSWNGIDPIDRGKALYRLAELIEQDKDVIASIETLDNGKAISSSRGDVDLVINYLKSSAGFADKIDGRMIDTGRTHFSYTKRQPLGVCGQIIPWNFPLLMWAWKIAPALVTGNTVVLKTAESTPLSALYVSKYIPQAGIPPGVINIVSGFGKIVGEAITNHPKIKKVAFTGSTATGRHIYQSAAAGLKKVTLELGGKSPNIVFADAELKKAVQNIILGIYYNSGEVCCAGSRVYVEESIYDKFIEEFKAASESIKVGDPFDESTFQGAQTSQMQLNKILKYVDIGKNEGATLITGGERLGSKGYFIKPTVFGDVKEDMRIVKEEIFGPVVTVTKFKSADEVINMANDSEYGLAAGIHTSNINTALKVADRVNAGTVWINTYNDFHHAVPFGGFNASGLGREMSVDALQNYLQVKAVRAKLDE
Description: In vitro ALDH1 inhibitory assay (propanal oxidation, NAD, OD 340 nm). The note with it: for inhibitory activity on ALDH1 (in words): in vitro. It is filed as biochemical. How it is done:
(§1) In vitro ALDH1 inhibitory assay was performed as follows. To a reaction mixture containing 1 mM EDTA, 100 mM KCl, 2 mM NAD, 0.1 M sodium phosphate buffer pH 7.4, 1 U/mg baker’s yeast ALDH1 was added by Multifunction microplatereader (Tecan Infinite 200, TECAN Austria GmbH, Männedorf, Switzerland). The reaction was started by the addition of 1 mM propanal in final volume of 300 μL and the optical density (OD) was read at 340 nm at 0 min (just after the addition of the substrate) and reacted for 5 min. The enzyme activity is expressed as OD/min at 25 °C at the pH 7.4. Results are the average of three experiments done in duplicate. […] The IC50 values in units of μM were transformed in pIC50 (–log IC50). The data was randomly divided into training set (26 samples) and test set (4 samples * carry out external validation).

Another series in a line: Solubility (remark). It counts as physicochemical.
The next series deals with T2, ALDH1 (Saccharomyces cerevisiae, UniProt P46367).
T2 construct: purchased Sigma (St. Louis, MO, USA)
T2 sequence (P46367 25-519): T1 sequence (P46367 25-519)
The experiment in a line: Kinetic analysis of inhibition of ALDH1 (Lineweaver-Burk plots, propanal). It is filed as biochemical, baker's yeast. The note with it: double-reciprocal plots, oxidation of propanal. The method, then:
as §1, with “Figure 1. […] In vitro” for “In vitro”

The mark [1] stands for this setting: 1 mM propanal, 2 mM NAD, pH 7.4, 25 °C, read-out: IC50.
The mark [2] stands for this setting: Table 3, experimental activity, read-out: Actual pIC50 (converted).
The mark [3] stands for this setting: Table 1, –log IC50, read-out: pIC50 (converted).

`O=C1/C(=C/c2ccc(O)c(O)c2)COC/C1=C\c1ccc(O)c(O)c1` [Compound 8]: the pIC50 at baker's yeast ALDH1 (setting [1]) is 5.10. The IC50 at baker's yeast ALDH1 (setting [2]) was 7.94 µM. Further, the “inhibitory activity on ALDH1 (in words)” value against baker's yeast ALDH1 is recorded as “high inhibitory activity”.
On to `O=C1/C(=C/c2ccc(O)c(O)c2)CSC/C1=C\c1ccc(O)c(O)c1` [Compound 9], for which the negative-log IC50 (pIC50) on baker's yeast ALDH1 (setting [1]) was 4.64. The IC50 at baker's yeast ALDH1 (setting [2]) is 22.9 µM.
For the compound `O=C1/C(=C/c2ccc(Br)cc2)CCC/C1=C\c1ccc(Br)cc1` [Compound 24], the solubility entry in “Solubility (remark)” is recorded as “not good”. At baker's yeast ALDH1 (setting [1]), the pIC50 is 5.09. Also, the IC50 at baker's yeast ALDH1 (setting [3]) and at baker's yeast ALDH1 (setting [2]) was 8.32 µM throughout. Besides, at baker's yeast ALDH1, the “inhibitory activity on ALDH1 (in words)” value is on record as “high inhibitory activity”. In addition, the inhibition type entry at ALDH1 is “mixed-competitive inhibition type”.
In the case of `O=C1/C(=C/c2ccc(O)cc2)COC/C1=C\c1ccc(O)cc1` [Compound 11], the pIC50 at baker's yeast ALDH1 (setting [1]) was 4.40. In addition, the IC50 at baker's yeast ALDH1 (setting [3]) and on baker's yeast ALDH1 (setting [2]) was 38.9 µM in each case.
Consider `O=C1/C(=C/c2ccc(O)c(O)c2)CCC/C1=C\c1ccc(O)c(O)c1` [Compound 7], for which the pIC50 was 5.20 at baker's yeast ALDH1 (Actual pIC50, Table 3, experimental activity); 5.19 on baker's yeast ALDH1 (IC50, 1 mM propanal, 2 mM NAD, pH 7.4, 25 °C); 5.20 against baker's yeast ALDH1 (pIC50, Table 1, –log IC50). Also, the “inhibitory activity on ALDH1 (in words)” value on baker's yeast ALDH1 is reported as “high inhibitory activity”.
Consider `O=C1/C(=C/c2ccccn2)CCC/C1=C\c1ccccn1` [Compound 30], for which the pIC50 on baker's yeast ALDH1 (setting [1]) was 4.74. At baker's yeast ALDH1 (setting [2]), the IC50 was 18.2 µM.
With `COc1cc(/C=C2\COC/C(=C\c3cc(OC)c(O)c(OC)c3)C2=O)cc(OC)c1O` [Compound 15], the negative-log IC50 (pIC50) at baker's yeast ALDH1 (setting [1]) is 4.78. Besides, the IC50 at baker's yeast ALDH1 (setting [2]) was 16.6 µM.
Regarding `O=C1/C(=C/c2ccc(O)c(O)c2)CC/C1=C\c1ccc(O)c(O)c1` [Compound 6], at baker's yeast ALDH1 (setting [1]), the pIC50 is 5.47. In addition, on baker's yeast ALDH1 (setting [3]), the IC50 is 3.47 µM. At baker's yeast ALDH1, the “inhibitory activity on ALDH1 (in words)” value is listed as “high inhibitory activity”. The “activity relative to curcumin” value on baker's yeast ALDH1 (ratio of IC50 values) is given as “over 10 times”. Further, on ALDH1, the inhibition type result is listed as “mixed-competitive inhibition type”.
In the case of `COc1cc(/C=C2\CSC/C(=C\c3cc(OC)c(OC)c(OC)c3)C2=O)cc(OC)c1OC` [Compound 21], the negative-log IC50 (pIC50) on baker's yeast ALDH1 (setting [1]) was 4.20. The IC50 at baker's yeast ALDH1 (setting [2]) is 63.1 µM.
With `O=C1/C(=C/c2ccc(O)cc2)CC/C1=C\c1ccc(O)cc1` [Compound 10], the negative logarithm of the IC50 (pIC50) on baker's yeast ALDH1 (setting [1]) is 4.27. Moreover, the IC50 on baker's yeast ALDH1 (setting [2]) was 63.1 µM.
Turning to `COc1cc(/C=C/C(=O)CC(=O)/C=C/c2ccc(O)c(OC)c2)ccc1O` [Curcumin], at baker's yeast ALDH1 (setting [1]), the pIC50 was 4.43.
Turning to `O=C1/C(=C/c2cc(Br)c(O)c(Br)c2)CCC/C1=C\c1cc(Br)c(O)c(Br)c1` [Compound 18], the negative-log IC50 (pIC50) on baker's yeast ALDH1 (setting [1]) is 4.76. Besides, the IC50 on baker's yeast ALDH1 (setting [2]) was 17.4 µM.
For `COc1cc(/C=C2\CC/C(=C\c3ccc(O)c(OC)c3)C2=O)ccc1O` [Compound 13], in that order: 4.62 and 24 µM.
The corresponding values for `O=C1/C(=C/c2cc(O)cc(O)c2)CC/C1=C\c1cc(O)cc(O)c1` [Compound 12] are 4.36 and 43.7 µM.
For `O=C(/C=C/c1ccc(O)c(O)c1)/C=C/c1ccc(O)c(O)c1` [Compound 5], in that order: 4.63 and 23.4 µM.
`O=C(/C=C/c1cc(Br)c(O)c(Br)c1)/C=C/c1cc(Br)c(O)c(Br)c1` [Compound 17]: on baker's yeast ALDH1 (setting [1]), the negative-log IC50 (pIC50) was 4.59. Moreover, the IC50 on baker's yeast ALDH1 (setting [2]) is 25.7 µM.
The corresponding values for `CN(C)c1ccc(/C=C2\CSC/C(=C\c3ccc(N(C)C)cc3)C2=O)cc1` [Compound 23] are 4.16 and 69.2 µM.
The corresponding values for `COc1cc(/C=C2\CSC/C(=C\c3ccc(O)c(OC)c3)C2=O)ccc1O` [Compound 14] are 4.50 and 31.6 µM.
The corresponding values for `O=C1/C(=C/c2ccncc2)CSC/C1=C\c1ccncc1` [Compound 26] are 4.97 and 10.7 µM.
`O=C1/C(=C/c2cccs2)CC/C1=C\c1cccs1` [Compound 25]: the pIC50 on baker's yeast ALDH1 (setting [1]) is 4.52. Besides, the IC50 at baker's yeast ALDH1 (setting [3]) and on baker's yeast ALDH1 (setting [2]) was 29.5 µM each time.
On to `COc1cc(/C=C2\COC/C(=C\c3cc(F)c(O)c(OC)c3)C2=O)cc(F)c1O` [Compound 16], for which, on baker's yeast ALDH1 (setting [1]), the negative logarithm of the IC50 (pIC50) is 4.27. Also, at baker's yeast ALDH1 (setting [2]), the IC50 was 53.7 µM.
For the compound `COc1cc(/C=C2\CNC/C(=C\c3cc(OC)c(O)c(OC)c3)C2=O)cc(OC)c1O` [Compound 3], the negative-log IC50 (pIC50) at baker's yeast ALDH1 (setting [1]) was 4.52. Also, the IC50 at baker's yeast ALDH1 (setting [2]) was 30.2 µM.
For `O=C1/C(=C/c2cc(Br)c(O)c(Br)c2)COC/C1=C\c1cc(Br)c(O)c(Br)c1` [Compound 19], in that order: 4.73 and 18.6 µM.
The corresponding values for `CN(C)c1ccc(/C=C2\CCC/C(=C\c3ccc(N(C)C)cc3)C2=O)cc1` [Compound 22] are 4.13 and 74.1 µM.
The corresponding values for `O=C1/C(=C/c2ccc(O)c(O)c2)CNC/C1=C\c1ccc(O)c(O)c1` [Compound 4] are 4.40 and 39.8 µM.
`O=C1/C(=C/c2cc(Br)c(O)c(Br)c2)CSC/C1=C\c1cc(Br)c(O)c(Br)c1` [Compound 20]: on baker's yeast ALDH1 (setting [1]), the pIC50 was 4.75. For the same compound, the IC50 on baker's yeast ALDH1 (setting [2]) was 17.8 µM.
Take `O=C1/C(=C/c2ccccn2)CC/C1=C\c1ccccn1` [Compound 29]: the IC50 on baker's yeast ALDH1 (setting [3]) and at baker's yeast ALDH1 (setting [2]) was 13.8 µM each time.
As for `CCN(CC)C(=S)SSC(=S)N(CC)CC` [Disufiram, disulfiram, reference compound], at baker's yeast ALDH1 (setting [1]), the pIC50 is 5.54.
